Key:
[1] = system: Bacillus subtilis ATCC 6633; experiment: Antimicrobial activity, MIC determination; type: cell-based; conditions: B. subtilis; 24-h incubation, 37°C
Protocol: (§1) The in vitro antimicrobial activity of the compounds was evaluated by determining the minimum inhibitory concentration (MIC) against the Gram-positive microorganisms Staphylococcus aureus ATCC 6538 (S. aureus) and Bacillus subtilis ATCC 6633 (B. subtilis) and the Gram-negative microorganism Xanthomonas campestris ATCC 1395 (X. campestris). The affinity of the compounds for bovine serum albumin (BSA) and human serum albumin (HSA) was studied by fluorescence emission spectroscopy, and the corresponding binding constants were determined. Furthermore, the interaction of the compounds with calf-thymus DNA (CT DNA) was investigated to determine the possible mode of interaction by the following methods: (i) UV–vis spectroscopy (where the DNA-binding constants of the complexes (Kb) were also determined), (ii) DNA-viscosity measurements, (iii) cyclic voltammetry and (iv) competitive DNA-binding studies with the classic intercalator ethidium bromide (EB) performed by fluorescence emission spectroscopy.
(§2) Three bacterial strains, one Gram(−) (X. campestris) and two Gram(+) (S. aureus and B. subtilis), were used in order to test the antimicrobial activity of the compounds.
(§3) The antimicrobial activity of the compounds was evaluated b y determining their respective MIC values towards one Gram–( –) (Xanthomonas campestris ATCC 1395 (X. campestris)) and two Gram–(+) (Staphylococcus aureus ATCC 6538 (S. aureus) and Bacillus subtilis ATCC 6633 (B. subtilis)) bacterial species. Cultures of these microbial strains were grown on a rich selective agar medium and stored at 4°C. The selective media used were Nutrient Agar or Broth for B. subtilis and S. aureus, and Yeast Mold Agar or Broth for X. campestris . Cells picked from the surface of the stored cultures were used to initiate liquid pre–cultures of the same selective medium at an initial turbidity of roughl y 1 McFarland unit. Pre–cultures were incubated for 24 h in a rotar y sh aking incubator and subsequently the y were used to inoculate the test cultures used for the determination of MIC at an initial turbidity of 0.5 McFarland units. The test cultures consisted of Mueller–Hinton broth (Deben Diagnostics Ltd) containing different concentrations of the compounds. Different concentrations were achieved as follows: the compounds were freshly dissolved in DMSO to a concentration of 1 mg/mL and they were diluted with DMSO, using the method of progressive double dilution. Therefore, working solutions with decreasing concentrations of the compounds under investigation were achieved. The working solutions were subsequently diluted to the final desired concentration b y addition to the growth medium at a proportion of 2:98. MIC values were determined as the lowest concentrations of the tested compounds that inhibited visible growth of each respective organism after a 24–h incubation [ S1]. Bacterial growth was determined b y measuring the turbidit y of appropriatel y diluted cultures at 600 nm with reference to equall y diluted sterile growth medium and the inhibition achieved was calculated b y comparing the turbidit y of each culture to the average of the turbidit y of three non–inhibited cultures. All test cultures were grown in triplicates and for the determination of MIC, growth had to be inhibited in at least two cultures of the triplicate. In cubation temperatur e at all stages was 37°C ex cept for X. campestris t h at was cultivated at 28°C [S2]. […]
(§4) The fluorescence spectra of the compounds were recorded under the same experimental conditions and presented a low–intensity emission band in the region 405–410 nm .

[2] = system: Staphylococcus aureus ATCC 6538; experiment: Antimicrobial activity, MIC determination; type: cell-based; conditions: S. aureus; 24-h incubation, 37°C
Protocol: as §1, §2, §3, §4

[3] = system: Xanthomonas campestris ATCC 1395; experiment: Antimicrobial activity, MIC determination; type: cell-based; conditions: X. campestris; 24-h incubation, 28°C
Protocol: as §1, §2, §3, §4

[4] = molecular target: T1, bovine serum albumin (BSA) (Bos taurus, UniProt P02769); experiment: Albumin binding by tryptophan fluorescence emission quenching
T1 construct: purchased
T1 sequence (P02769 25-607): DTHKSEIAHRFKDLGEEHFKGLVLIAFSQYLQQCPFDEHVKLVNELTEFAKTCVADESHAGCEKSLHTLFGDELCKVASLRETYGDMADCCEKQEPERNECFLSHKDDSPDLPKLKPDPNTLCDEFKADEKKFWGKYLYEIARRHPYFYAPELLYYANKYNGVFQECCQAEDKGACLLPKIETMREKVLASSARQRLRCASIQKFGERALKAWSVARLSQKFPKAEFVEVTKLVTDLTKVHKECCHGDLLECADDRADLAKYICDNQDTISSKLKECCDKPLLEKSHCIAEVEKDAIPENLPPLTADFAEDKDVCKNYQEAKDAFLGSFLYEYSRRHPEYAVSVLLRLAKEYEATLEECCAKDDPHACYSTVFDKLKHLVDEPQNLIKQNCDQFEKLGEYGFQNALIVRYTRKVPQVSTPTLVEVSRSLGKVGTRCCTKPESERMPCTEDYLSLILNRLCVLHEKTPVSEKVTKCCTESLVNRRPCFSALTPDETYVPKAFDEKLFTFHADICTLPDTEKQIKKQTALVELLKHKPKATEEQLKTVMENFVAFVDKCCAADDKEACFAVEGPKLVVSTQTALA
Protocol: (§5) Serum albumins (Sas) are the most abundant serum proteins and play a role in the circulatory system, primarily in the transport of drugs and other bioactive small molecules through the bloodstream.
(§6) The SA-quenching constants (kq) for the compounds (Table 5) were calculated with the Stern–Volmer quenching equation (Equations (S2) and (S3)).
(§7) Albumin-binding constants (K) were calculated using the Scatchard equation (Equation (S4)). […]
(§8) S2. Interaction with serum albumins
(§9) The albumin–binding study for the compounds was carried out b y fluorescence emission

[5] = molecular target: T2, human serum albumin (HSA) (Homo sapiens, UniProt P02768); experiment: as above
T2 construct: purchased
T2 sequence (P02768 25-609): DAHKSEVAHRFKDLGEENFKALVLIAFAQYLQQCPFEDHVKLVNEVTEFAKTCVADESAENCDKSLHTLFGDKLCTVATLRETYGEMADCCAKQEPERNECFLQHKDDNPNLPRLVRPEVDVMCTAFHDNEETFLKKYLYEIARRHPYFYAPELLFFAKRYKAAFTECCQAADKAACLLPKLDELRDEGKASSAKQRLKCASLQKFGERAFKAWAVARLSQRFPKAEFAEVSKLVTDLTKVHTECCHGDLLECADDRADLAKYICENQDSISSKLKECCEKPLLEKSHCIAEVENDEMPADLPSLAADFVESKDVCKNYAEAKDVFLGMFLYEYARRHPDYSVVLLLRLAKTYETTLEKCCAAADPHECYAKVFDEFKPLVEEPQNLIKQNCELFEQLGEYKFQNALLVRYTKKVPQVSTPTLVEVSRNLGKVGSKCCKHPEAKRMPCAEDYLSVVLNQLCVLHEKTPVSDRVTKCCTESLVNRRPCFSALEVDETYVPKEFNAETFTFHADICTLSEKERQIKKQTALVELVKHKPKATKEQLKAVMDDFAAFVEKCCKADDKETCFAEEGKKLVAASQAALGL
Protocol: as §5, §6, §7, §8, §9

EB–DNA adduct (CT DNA) = experiment: Competitive study with EB (EB–DNA fluorescence quenching); type: binding, calf
Protocol: Ethidium bromide is a typical marker of intercalation because it can intercalate between adjacent DNA bases with its planar phenanthridine ring.
The fluorescence emission spectra of the EB–DNA adduct ([EB] = 20 μM, [DNA] = 26 μM) in the absence and presence of the compounds were recorded at increasing amounts of the respective compounds. […] As a conclusion, an intercalative interaction of the complexes with CT DNA can be proposed.
The values of the Stern–Volmer constants (Ksv) for the compounds were calculated using the linear Stern–Volmer equation (Equation (S2)) and were of the order of 10^5 M^−1 (Table 8), indicating tight binding of the complexes with DNA [61]. The Ksv values for the complexes are in the range found for a number of metal(II)–quinolone complexes, and complex 12 presents the highest Ksv value (Ksv = 7.25(±0.30) × 10^5 M^−1) among the compounds studied. In addition, the EB–DNA quenching constants (kq) for the compounds were calculated with Equation (S3), assuming τo = 23 ns as the fluorescence lifetime. The values of kq (Table 8) are much higher than the value of 10^10 M^−1s^−1, indicating a static mechanism of EB–DNA fluorescence quenching induced by the compounds, which can result from the formation of a new adduct apparently consisting of each complex and DNA [61].
In order to determine and confirm the DNA–binding mode of the compounds, a competitive study with EB as an intercalating marker is performed b y fluorescence emission spectroscopy.
Therefo re, the E B–displacing abilit y of the compounds from its EB –DN A conjugate was ex amined.
The DNA–EB adduct was prepared b y addition of 20 μM EB and 26 μM CT DNA in buffer solution (150 mM NaCl and 15 mM trisodium citrate at pH 7.0). The potential intercalation of the compounds between the DNA–bases was studied by the addition of a certain amount of the compound solution into the EB–DNA adduct solution. The influence of the compounds on the EB – DNA solution was monitored through the changes of the fluorescence emission spectra at excitation […]
wavelen gth (λex ) at 540 nm [S3]. […]
room temperature in solution or in the presence of DNA, under the same experimental conditions (λex = 540 nm). Bearing t hat in mind, the observed quenching of the EB–DNA solution is evidentl y associated to the displacement of EB from its EB–DNA adduct.
The quenching effici ency (KSV) for each compound was assessed according to the Stern – Volmer equation: Io =1+ k τ [Q] = 1+ K [Q], (eq. S2) [S3] where I0 and I = the fluorescence […]
emission intensities of EB–DNA in the absence and presence of the quencher, respectivel y, [Q] = the concentration of the quencher (i.e. compounds). KSV is obtained from t he Stern–Volmer plots b y the slope of the diagram I0/ I versus [Q]. Taking τ0 = 23 ns as the fluorescence lifetime of the EB– DNA s ystem [S5], the EB –DNA quenching constants (k q) of the compounds can be determined accordin g to eq.S3: K SV = kqτo . […]
[S2] Irgi, E.P.; Geromichalos, G.D.; Balala, S.; Kljun, J.; Kalogiannis, S.; Papadopoulos, A.; Turel, I.; Psomas, G. Cobalt(II) complexes with quinolone antimicrobial drug oxolinic acid: […]
[ S 5] Heller, D.P.; Greenstock, C.L. Fluorescence lifetime analysis of DNA intercalated ethidium bromide and quenching by free d ye. Biophys. Chem . 1994, 50, 305–312.

CN1CCN(c2c(F)cc3c(=O)c(C(=O)[O-])cn(CCF)c3c2F)CC1.CN1CCN(c2c(F)cc3c(=O)c(C(=O)[O-])cn(CCF)c3c2F)CC1.[Zn+2].c1cnc2c(c1)ccc1cccnc12 [complex 14, [Zn(flrx)2(phen)]]
MIC [1]: 8 µg/mL | MIC (values in parentheses) [1]: 8.1 µM | MIC [2]: 8 µg/mL | MIC (values in parentheses) [2]: 8.1 µM | MIC [3]: 16 µg/mL | MIC (values in parentheses) [3]: 16.3 µM | K(BSA), BSA-binding constant ([4]; BSA 3 μM, buffer pH 7.0, Scatchard equation): 5.56(±0.25) × 10^4 M^−1 | kq(BSA), BSA-quenching constant ([4]; BSA 3 μM, buffer pH 7.0, λexc 295 nm, Stern–Volmer, τ0 = 10^–8 s): 1.61(±0.07) × 10^13 M^−1s^−1 | BSA fluorescence, % of the initial fluorescence intensity (I/Io) ([4]; λem,max = 342 nm, final value of titration (Figure S11)): 25.8% | K(HSA), HSA-binding constant ([5]; HSA 3 μM, buffer pH 7.0, Scatchard equation): 6.16(±0.43) × 10^4 M^−1 | kq(HSA), HSA-quenching constant ([5]; HSA 3 μM, buffer pH 7.0, λexc 295 nm, Stern–Volmer, τ0 = 10^–8 s): 1.10(±0.04) × 10^13 M^−1s^−1 | HSA fluorescence, % of the initial fluorescence intensity (I/Io) ([5]; λem,max = 351 nm, final value of titration (Figure S10)): 33.5% | Ksv, Stern–Volmer constant (EB–DNA adduct (CT DNA); EB–DNA adduct): 3.03(±0.05) × 10^5 M^–1 | ΔI/Io, percentage of EB–DNA fluorescence quenching (EB–DNA adduct (CT DNA); [EB] = 20 μM, [DNA] = 26 μM, λexc 540 nm, λem 592 nm): 77.9% | EB–DNA relative fluorescence emission intensity, % of the initial (I/Io) (EB–DNA adduct (CT DNA); λemission = 592 nm, final value (up to), Figure S14): 22.1% | kq, EB–DNA quenching constant (EB–DNA adduct (CT DNA); τo = 23 ns): 1.32(±0.02) × 10^13 M^−1s^−1

From article PMC9144902, “Metal(II) Complexes of the Fluoroquinolone Fleroxacin: Synthesis, Characterization and Biological Profile” (Pharmaceutics, 2022)
